Test results taken from publication PMC7774954, “Interactomic affinity profiling by holdup assay: Acetylation and distal residues impact the PDZome-binding specificity of PTEN phosphatase” (PLoS ONE, 2020).

How the values were obtained:
GRIP1-6 = test: Holdup assay, GRIP1-6; format: binding, human
DLG4 PDZ 1 = target: T1, DLG4 PDZ 1 (Homo sapiens, UniProt P78352); test: Holdup assay, DLG4-1; format: binding; details: DLG4-1
T1 construct: made in house; host or cells: E. coli
Protocol: (§1) The holdup assay was performed on a Tecan freedom Evo200 robot with 384-well plates in singlicate for the three 11-mer PTEN variants and the 13-mer PTEN peptide as described in [31, 32]. Briefly, prior to interaction assay, 2.5 μL of streptavidin resin was saturated in each well with 20 μL of biotinylated PBM peptides (42 μM) and then washed twice with an excess of free biotin, while the reference resin was incubated only with biotin. Right before the holdup experiment, the PDZ library was spiked with an internal standard of lysozyme. Then, the biotin- or PBM-saturated resin was incubated, each in a distinct well of a 384-well plate, with complete cell lysates diluted so that the concentration of the tag-PDZ present in the crude extract is adjusted at 4 μM. After a sufficient time to reach complex equilibrium (15 min.), a fast and mild filtration step is performed and the tag-PDZ concentrations were measured by capillary electrophoresis instrument (LabChip GXII, PerkinElmer, Massachusets, USA). Standard markers were used to convert migration time into molecular weight on the LabChip software and inappropriate molecular weight markers were corrected or excluded.
(§2) For filtered data, the BI was extracted with the following equation (Eq 1) that estimates the depleted fraction after superimposition of the sample and reference electropherograms: BI=Iref−Ilig/Iref (1) where Iref and Ilig are the intensities of the tag-PDZ peaks measured, for each PDZ domain/PBM peptide interaction pair, in the biotin reference and the PBM electropherograms, respectively.
(§3) BIs were transformed into dissociation constants (KD) using the following formula: KD=([PDZtot]−BI·[PDZtot])·([PBMtot]−BI·[PDZtot])/BI·[PDZtot] (2) where [PDZtot] and [PBMtot] correspond to the total concentrations of the PDZ domain (usually around 4 μM) and the PBM peptide used during the assay. Since the PBMtot concentration in the resin during the holdup assay parameter may differ from one peptide to another and remains unknown, it is impossible to directly convert BI values into KD constants. We systematically determined the KD constants for a subset of PDZ/PBM pairs by competitive FP. […] For each PBM, the average peptide concentration was calculated after outlier rejection based on the absolute distances from the median as compared to three times the standard deviation (3σ rule), with never more than 2 values rejected.

LDB3-1 = test: Holdup assay, LDB3-1; format: binding, human
MAGIX-1 = test: Holdup assay, MAGIX-1; format: binding, human
GRIP1-4 = test: Holdup assay, GRIP1-4; format: binding, human
DLG5-4 = test: Holdup assay, DLG5-4; format: binding, human
GRIP2-7 = test: Holdup assay, GRIP2-7; format: binding, human
INADL-5 = test: Holdup assay, INADL-5; format: binding, human
LNX2-2 = target: T2, LNX2-2 (Homo sapiens, UniProt Q8N448); test: Holdup assay, LNX2-2; format: binding
T2 sequence (Q8N448 339-422): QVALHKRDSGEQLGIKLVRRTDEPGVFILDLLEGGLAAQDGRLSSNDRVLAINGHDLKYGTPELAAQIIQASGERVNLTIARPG

MAGI3 PDZ 2 = target: T3, MAGI3 PDZ 2 (Homo sapiens, UniProt Q5TCQ9); test: Holdup assay, MAGI3-2; format: binding; details: for BI: MAGI3-2
T3 construct: made in house; host or cells: E. coli
Protocol: as §1, §2, §3

SDCBP PDZ 1 = target: T4, SDCBP PDZ 1 (Homo sapiens, UniProt O00560); test: Holdup assay, SDCBP-1; format: binding; details: PDZ domain SDCBP-1
T4 construct: made in house; host or cells: E. coli
T4 sequence (O00560 114-193 limits assumed): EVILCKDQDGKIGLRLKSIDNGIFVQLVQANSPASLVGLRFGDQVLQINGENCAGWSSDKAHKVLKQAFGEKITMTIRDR
Protocol: as §1, §2, §3

DFNB31-1 = target: T5, DFNB31-1 (Homo sapiens, UniProt Q9P202); test: Holdup assay, DFNB31-1; format: binding
T5 sequence (Q9P202 140-223): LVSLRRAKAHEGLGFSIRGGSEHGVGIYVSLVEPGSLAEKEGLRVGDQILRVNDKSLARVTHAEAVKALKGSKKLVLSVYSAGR

INADL-3 = test: Holdup assay, INADL-3; format: binding, human
LAP2-1 = LAP2-1 (Homo sapiens, UniProt Q96RT1); test: Holdup assay, LAP2-1; format: binding
FRMPD3-1 = test: Holdup assay, FRMPD3-1; format: binding, human
PTPN13 PDZ 2 = target: T6, PTPN13 PDZ 2 (Homo sapiens, UniProt Q12923); test: Holdup assay, PTPN13-2; format: binding; details: PDZ domain PTPN13-2
T6 construct: made in house; host or cells: E. coli
T6 sequence (Q12923 1368-1452 limits assumed): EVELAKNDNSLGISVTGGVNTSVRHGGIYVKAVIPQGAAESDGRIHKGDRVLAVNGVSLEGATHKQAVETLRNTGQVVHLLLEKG
Protocol: as §1, §2, §3

MAGI2-1 = test: Holdup assay, MAGI2-1; format: binding, human
INADL-9 = test: Holdup assay, INADL-9; format: binding, human
MAST4-1 = test: Holdup assay, MAST4-1; format: binding, human
HTRA1-1 = target: T7, HTRA1-1 (Homo sapiens, UniProt Q92743); test: Holdup assay, HTRA1-1; format: binding
T7 construct: His-MBP or His-TRX (N); made in house; host or cells: E. coli
Protocol: as §1, §2

GRIP2-4 = test: Holdup assay, GRIP2-4; format: binding, human
CNKSR3-1 = test: Holdup assay, CNKSR3-1; format: binding, human
CARD14-1 = test: Holdup assay, CARD14-1; format: binding, human
DVL2-1 = test: Holdup assay, DVL2-1; format: binding, human

T7 sequence (Q92743 365-467 limits assumed): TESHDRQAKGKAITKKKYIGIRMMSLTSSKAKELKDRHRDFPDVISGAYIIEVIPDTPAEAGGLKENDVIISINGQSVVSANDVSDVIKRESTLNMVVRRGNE
LAP2-1, sequence (Q96RT1 1321-1410): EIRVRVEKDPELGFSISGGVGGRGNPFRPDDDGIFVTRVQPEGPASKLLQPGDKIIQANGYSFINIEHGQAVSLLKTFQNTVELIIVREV
T3 sequence (Q5TCQ9 410-492 limits assumed): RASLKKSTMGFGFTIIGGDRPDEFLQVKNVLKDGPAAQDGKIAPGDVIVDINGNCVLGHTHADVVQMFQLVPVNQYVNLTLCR
T1 sequence (P78352 65-151): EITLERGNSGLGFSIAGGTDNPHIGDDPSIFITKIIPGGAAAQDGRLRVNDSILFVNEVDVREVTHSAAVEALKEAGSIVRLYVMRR

How did the BI (GRIP1-6) turn out when `CC[C@H](C)[C@H](NC(=O)[C@H](CCC(N)=O)NC(=O)[C@@H](NC(=O)[C@H](Cc1c[nH]cn1)NC(=O)[C@H](CCC(N)=O)NC(=O)[C@H](CC(=O)O)NC(=O)[C@H](CCC(=O)O)NC(=O)[C@H](CC(=O)O)NC(=O)CCC(=O)NCCCOCCOCCOCCCNC(=O)CCCC[C@@H]1SC[C@@H]2NC(=O)N[C@@H]21)[C@@H](C)O)C(=O)N[C@H](C(=O)N[C@@H](CCCCNC(C)=O)C(=O)N[C@H](C(=O)O)C(C)C)[C@@H](C)O` [PTEN_Ac] was run?
Its BI is -0.056.

And the LogKD (GRIP1-6)?
The LogKD was 3.605.

And the BI (DLG4 PDZ 1)?
The BI was 0.15.

What about the BI (LDB3-1) of the same molecule?
The BI was -0.04.

And the LogKD (LDB3-1)?
Its LogKD is 3.605.

What about the BI (MAGIX-1) of the same molecule?
The BI was -0.034.

And the LogKD (MAGIX-1)?
Its LogKD is 3.605.

What about the BI (GRIP1-4) of the same molecule?
Its BI is 0.038.

And the LogKD (GRIP1-4)?
The LogKD was 3.605.

What about the BI (DLG5-4) of the same molecule?
Its BI is -0.1.

And the LogKD (DLG5-4)?
Its LogKD is 3.605.

And the BI (GRIP2-7)?
The BI was -0.07.

What about the LogKD (GRIP2-7) of the same molecule?
Its LogKD is 3.605.

What about the BI (INADL-5) of the same molecule?
The BI was -0.076.

And the LogKD (INADL-5)?
Its LogKD is 3.605.

And the BI (LNX2-2)?
The BI was 0.68.

And the Kd (LNX2-2)?
The Kd was 11.9 µM.

And the Kd (MAGI3 PDZ 2)?
Its Kd is 38.8 µM.

And the BI (MAGI3 PDZ 2)?
Its BI is 0.405.

What about the BI (SDCBP PDZ 1) of the same molecule?
The BI was -0.057.

What about the BI (DFNB31-1) of the same molecule?
The BI was 0.09.

And the LogKD (DFNB31-1)?
Its LogKD is 3.605.

What about the BI (INADL-3) of the same molecule?
Its BI is -0.021.

And the LogKD (INADL-3)?
Its LogKD is 3.605.

And the BI (LAP2-1)?
Its BI is 0.214.

What about the Kd (LAP2-1) of the same molecule?
The Kd was 99.7 µM.

What about the BI (FRMPD3-1) of the same molecule?
Its BI is -0.12.

What about the LogKD (FRMPD3-1) of the same molecule?
The LogKD was 3.605.

What about the BI (PTPN13 PDZ 2) of the same molecule?
Its BI is 0.044.

What about the BI (MAGI2-1) of the same molecule?
Its BI is 0.014.

And the LogKD (MAGI2-1)?
Its LogKD is 3.605.

What about the BI (INADL-9) of the same molecule?
Its BI is 0.072.

And the LogKD (INADL-9)?
The LogKD was 3.605.

What about the BI (MAST4-1) of the same molecule?
Its BI is -0.003.

What about the LogKD (MAST4-1) of the same molecule?
Its LogKD is 3.605.

And the Kd (HTRA1-1)?
The Kd was 10.2 µM.

And the BI (HTRA1-1; HTRA1-1)?
The BI was 0.712.

`CC[C@H](C)[C@H](NC(=O)[C@H](CCC(N)=O)NC(=O)[C@@H](NC(=O)[C@H](Cc1c[nH]cn1)NC(=O)[C@H](CCC(N)=O)NC(=O)[C@H](CC(=O)O)NC(=O)[C@H](CCC(=O)O)NC(=O)[C@H](CC(=O)O)NC(=O)CCC(=O)NCCCOCCOCCOCCCNC(=O)CCCC[C@@H]1SC[C@@H]2NC(=O)N[C@@H]21)[C@@H](C)O)C(=O)N[C@H](C(=O)N[C@@H](CCCCN)C(=O)N[C@H](C(=O)O)C(C)C)[C@@H](C)O` [PTEN_11] was tested. Which BI (GRIP2-4) did it give?
Its BI is -0.019.

What about the LogKD (GRIP2-4) of the same molecule?
The LogKD was 3.519.

And the BI (GRIP1-6)?
The BI was 0.065.

What about the LogKD (GRIP1-6) of the same molecule?
The LogKD was 3.519.

And the BI (DLG4 PDZ 1)?
Its BI is 0.103.

And the BI (LDB3-1)?
Its BI is -0.027.

What about the LogKD (LDB3-1) of the same molecule?
The LogKD was 3.519.

What about the BI (MAGIX-1) of the same molecule?
The BI was 0.014.

And the LogKD (MAGIX-1)?
The LogKD was 3.519.

What about the BI (GRIP1-4) of the same molecule?
Its BI is 0.028.

And the LogKD (GRIP1-4)?
The LogKD was 3.519.

What about the BI (CNKSR3-1) of the same molecule?
Its BI is 0.028.

What about the LogKD (CNKSR3-1) of the same molecule?
Its LogKD is 3.519.

And the BI (DLG5-4)?
Its BI is -0.07.

What about the LogKD (DLG5-4) of the same molecule?
The LogKD was 3.519.

And the BI (GRIP2-7)?
Its BI is -0.067.

What about the LogKD (GRIP2-7) of the same molecule?
The LogKD was 3.519.

And the BI (INADL-5)?
The BI was -0.044.

And the LogKD (INADL-5)?
Its LogKD is 3.519.

And the BI (LNX2-2)?
Its BI is -0.039.

What about the LogKD (LNX2-2) of the same molecule?
Its LogKD is 3.519.

What about the BI (MAGI3 PDZ 2) of the same molecule?
The BI was 0.094.

And the BI (SDCBP PDZ 1)?
The BI was -0.001.

What about the BI (DFNB31-1) of the same molecule?
Its BI is 0.108.

What about the BI (INADL-3) of the same molecule?
The BI was -0.001.

And the LogKD (INADL-3)?
The LogKD was 3.519.

What about the BI (LAP2-1) of the same molecule?
The BI was 0.305.

What about the Kd (LAP2-1) of the same molecule?
The Kd was 74.7 µM.

What about the BI (FRMPD3-1) of the same molecule?
The BI was -0.078.

And the LogKD (FRMPD3-1)?
The LogKD was 3.519.

And the BI (PTPN13 PDZ 2)?
The BI was 0.184.

And the BI (MAGI2-1)?
Its BI is -0.04.

What about the LogKD (MAGI2-1) of the same molecule?
The LogKD was 3.519.

What about the BI (CARD14-1) of the same molecule?
The BI was -0.077.

And the LogKD (CARD14-1)?
The LogKD was 3.519.

What about the BI (INADL-9) of the same molecule?
The BI was 0.014.

And the LogKD (INADL-9)?
The LogKD was 3.519.

What about the BI (MAST4-1) of the same molecule?
Its BI is -0.08.

And the LogKD (MAST4-1)?
The LogKD was 3.519.

And the Kd (HTRA1-1)?
Its Kd is 47.6 µM.

What about the BI (HTRA1-1; HTRA1-1) of the same molecule?
Its BI is 0.405.

What about the “BI (binding intensity)” value (HTRA1-1; HTRA1-1, holdup, singlicate) of the same molecule?
Its value is 0.41.

What about the BI (DVL2-1) of the same molecule?
Its BI is -0.008.

What about the LogKD (DVL2-1) of the same molecule?
The LogKD was 3.519.
